Data: patent EP1048659A1, “RETINOID RECEPTOR AGONISTS” (Institute of Medicinal Molecular Design, Inc., priority 1997, dated 1999)
“And” between values parts separate entries of the source, which are not always exact repeats. Equal values may be shown once.

System: Promyelocytic leukemia cell strain HL-60
Test: HL-60 cell differentiation induction (morphological change, NBT reduction), each compound alone and with coexisting retinoid Am80
Type: cell-based
Conditions: for Ratio of differentiation-induced cells with coexistence of 1×10^-9 Am80: Table 1; for Ratio of differentiation-induced cells with coexistence of 1×10^-10 Am80: Table 2; for Ratio of differentiation-induced cells with coexistence of 3×10^-9 Am80: Table 3; for cell differentiation ability of the compound per se: compound used alone; for effect on the activity of the coexisting Am80 at a high concentration: compound at 1×10^-6 M; for ratios of differentiated cells, Coexisting retinoid (concentration) Am80 (-9): compound fixed at 1×10^-6 M with Am80 (-9); for ratios of differentiated cells, Coexisting retinoid (concentration) Am80 (-9.5): compound fixed at 1×10^-6 M with Am80 (-9.5); for ratios of differentiated cells, Coexisting retinoid (concentration) Am80 (-10): compound fixed at 1×10^-6 M with Am80 (-10); for ratios of differentiated cells, Coexisting retinoid (concentration) None: compound fixed at 1×10^-6 M, alone
Procedure: Cell differentiation-inducing activity of each compound of the present invention used alone, and effect on cell differentiation-inducing activity of coexisting retinoid were examined. As a comparative or coexisting retinoid, Am80 ([4-[(5,6,7,8-tetrahydro-5,5,8,8-tetramethyl-2-naphthalenyl)carbamoyl]benzoic acid] was used. Promyelocytic leukemia cell strain HL-60 was used, and differentiation into granulocytic cells was determined by observing morphological change and measuring ability to reduce nitroblue tetrazolium (NBT). The ratios of differentiated cells shown in the following tables were calculated from the ability to reduce NBT. (A) Concentration-dependent differentiation-inducing ability of each compound alone and concentration-dependent effect on the differentiation-inducing ability of 1×10^-9 M Am80 were measured. […] Table 1 (B) Concentration-dependent differentiation-inducing ability of each compound alone and concentration-dependent effect on the differentiation inducing ability of 1×10^-10 M Am80 were measured. […] Table 2 (C) Concentration-dependent differentiation-inducing ability of each compound alone and concentration-dependent effect on the differentiation inducing ability of 3×10^-9 M Am80 were measured.

[1] = (A) 1×10^-9 M Am80, enhancement at a concentration which did not give the cell differentiation-inducing ability, result in words
[2] = compound concentration -7, with 1×10^-9 M Am80
[3] = compound concentration -8, with 1×10^-9 M Am80
[4] = (B) 1×10^-10 M Am80, result in words
[5] = compound concentration -6, with 1×10^-10 M Am80
[6] = compound concentration -7, with 1×10^-10 M Am80
[7] = compound concentration -8, with 1×10^-10 M Am80
[8] = compound concentration -6, with 1×10^-9 M Am80
[9] = compound concentration -6, with 3×10^-9 M Am80
[10] = compound concentration -7, with 3×10^-9 M Am80
[11] = compound concentration -8, with 3×10^-9 M Am80

## CC1(C)CCC(C)(C)c2cc(NC(=O)c3ccc(C(=O)O)cc3)ccc21 [Am80, 4-[(5,6,7,8-tetrahydro-5,5,8,8-tetramethyl-2-naphthalenyl)carbamoyl]benzoic acid, reference compound]
Test compound concentration None: 1×10^-9 M Am80 alone, control
  Ratio of differentiation-induced cells with coexistence of 1×10^-9 Am80: 49% and 37% and 48%
Test compound concentration None: 1×10^-10 M Am80 alone, control
  Ratio of differentiation-induced cells with coexistence of 1×10^-10 Am80: 4% and 11%
Test compound concentration None: 3×10^-9 M Am80 alone, control
  Ratio of differentiation-induced cells with coexistence of 3×10^-9 Am80: 44 and 51
Table 4, Compound None: Am80 alone at -9
  ratios of differentiated cells, Am80 (-9): 80
Table 4, Compound None: Am80 alone at -9.5
  ratios of differentiated cells, Am80 (-9.5): 53
Table 4, Compound None: Am80 alone at -10
  ratios of differentiated cells, Am80 (-10): 8.5

## C/C(=C\c1ccc(/C=C2\SC(=O)NC2=O)cc1)c1ccc2c(c1)C(C)(C)CCC2(C)C [TZ91]
[1]
  effect on the activity of the coexisting Am80: enhanced the activity of the coexisting Am80
[2]
  Ratio of differentiation-induced cells with coexistence of 1×10^-9 Am80: 87%
[3]
  Ratio of differentiation-induced cells with coexistence of 1×10^-9 Am80: 62%
Compound concentration -9, with 1×10^-9 M Am80
  Ratio of differentiation-induced cells with coexistence of 1×10^-9 Am80: 58%
Result in words
  cell differentiation ability of the compound per se: had cell differentiation ability

## O=C1NC(=O)/C(=C/c2cccc(C(=O)NCc3ccc(C(F)(F)F)cc3)c2)S1 [TZ105, reference compound]
(E) comparison N-benzyl derivative, concentrations not given, result in words
  effect on the activity of the coexisting retinoid Am80: failed to effect the activity of the coexisting retinoid Am80
Result in words
  cell differentiation ability of the compound per se: completely inactive

## CC(C)(C)c1cc(C(=O)Nc2ccc(/C=C3\SC(=O)NC3=O)cc2)cc(C(C)(C)C)c1 [TZ151]
[4]
  effect on the activity of the coexisting Am80: enhanced the activity of the coexisting Am80
[5]
  Ratio of differentiation-induced cells with coexistence of 1×10^-10 Am80: 83%
[6]
  Ratio of differentiation-induced cells with coexistence of 1×10^-10 Am80: 43%
[7]
  Ratio of differentiation-induced cells with coexistence of 1×10^-10 Am80: 12%
Result in words
  cell differentiation ability of the compound per se: had cell differentiation ability

## CN(C(=O)c1cc(C(C)(C)C)cc(C(C)(C)C)c1)c1ccc(/C=C2\SC(=O)NC2=O)cc1 [TZ161]
[4]
  effect on the activity of the coexisting Am80 at a high concentration: acted to suppress the activity
  effect on the activity of the coexisting Am80: enhanced the activity of the coexisting Am80
[5]
  Ratio of differentiation-induced cells with coexistence of 1×10^-10 Am80: 3.8%
[6]
  Ratio of differentiation-induced cells with coexistence of 1×10^-10 Am80: 25%
[7]
  Ratio of differentiation-induced cells with coexistence of 1×10^-10 Am80: 12%
Result in words
  cell differentiation ability of the compound per se: inactive

## CC1(C)CCC(C)(C)c2cc(C(=O)Nc3ccc(/C=C4\SC(=O)NC4=O)cc3)ccc21 [TZ181]
[1]
  effect on the activity of the coexisting Am80: enhanced the activity of the coexisting Am80
[8]
  Ratio of differentiation-induced cells with coexistence of 1×10^-9 Am80: 6%
[2]
  Ratio of differentiation-induced cells with coexistence of 1×10^-9 Am80: 58%
[3]
  Ratio of differentiation-induced cells with coexistence of 1×10^-9 Am80: 53%
Result in words
  cell differentiation ability of the compound per se: had cell differentiation ability

## CN(C(=O)c1ccc2c(c1)C(C)(C)CCC2(C)C)c1ccc(/C=C2\SC(=O)NC2=O)cc1 [TZ191]
[4]
  effect on the activity of the coexisting Am80 at a high concentration: acted to suppress the activity
  effect on the activity of the coexisting Am80: enhanced the activity of the coexisting Am80
[5]
  Ratio of differentiation-induced cells with coexistence of 1×10^-10 Am80: 28%
[6]
  Ratio of differentiation-induced cells with coexistence of 1×10^-10 Am80: 75%
[7]
  Ratio of differentiation-induced cells with coexistence of 1×10^-10 Am80: 63%
Result in words
  cell differentiation ability of the compound per se: inactive

## CN1c2ccccc2N=C(c2ccc(/C=C3\SC(=O)NC3=O)cc2)c2cc3c(cc21)C(C)(C)CCC3(C)C [TZ201]
[1]
  effect on the activity of the coexisting Am80: suppressed the activity of the coexisting Am80
[8]
  Ratio of differentiation-induced cells with coexistence of 1×10^-9 Am80: 5%
[2]
  Ratio of differentiation-induced cells with coexistence of 1×10^-9 Am80: 53%
[3]
  Ratio of differentiation-induced cells with coexistence of 1×10^-9 Am80: 64%
Result in words
  cell differentiation ability of the compound per se: inactive

## CC1(C)CCC(C)(C)c2cc(C(=O)c3ccc(/C=C4\SC(=O)NC4=O)cc3)ccc21 [TZ221]
[9]
  Ratio of differentiation-induced cells with coexistence of 3×10^-9 Am80: 82
[10]
  Ratio of differentiation-induced cells with coexistence of 3×10^-9 Am80: 67
[11]
  Ratio of differentiation-induced cells with coexistence of 3×10^-9 Am80: 54

## CC1(C)CCC(C)(C)c2cc(C(=O)c3cccc(/C=C4\SC(=O)NC4=O)c3)ccc21 [TZ223]
Table 4
  ratios of differentiated cells, Coexisting retinoid (concentration) Am80 (-9): 62
  ratios of differentiated cells, Coexisting retinoid (concentration) Am80 (-9.5): 22
  ratios of differentiated cells, Coexisting retinoid (concentration) Am80 (-10): 5
  ratios of differentiated cells, Coexisting retinoid (concentration) None: 4.4

## Cc1cc2c(cc1C(=O)c1cccc(/C=C3\SC(=O)NC3=O)c1)C(C)(C)CCC2(C)C [TZ227]
Table 4
  ratios of differentiated cells, Coexisting retinoid (concentration) Am80 (-9): 11.7
  ratios of differentiated cells, Coexisting retinoid (concentration) Am80 (-9.5): 5.5
  ratios of differentiated cells, Coexisting retinoid (concentration) Am80 (-10): 7
  ratios of differentiated cells, Coexisting retinoid (concentration) None: 5.3

## C=C(c1ccc(/C=C2\SC(=O)NC2=O)cc1)c1ccc2c(c1)C(C)(C)CCC2(C)C [TZ241]
[9]
  Ratio of differentiation-induced cells with coexistence of 3×10^-9 Am80: 92
[10]
  Ratio of differentiation-induced cells with coexistence of 3×10^-9 Am80: 84
[11]
  Ratio of differentiation-induced cells with coexistence of 3×10^-9 Am80: 76

## C=C(c1cccc(/C=C2\SC(=O)NC2=O)c1)c1ccc2c(c1)C(C)(C)CCC2(C)C [TZ243]
Table 4
  ratios of differentiated cells, Coexisting retinoid (concentration) Am80 (-9): 77
  ratios of differentiated cells, Coexisting retinoid (concentration) Am80 (-9.5): 35
  ratios of differentiated cells, Coexisting retinoid (concentration) Am80 (-10): 5
  ratios of differentiated cells, Coexisting retinoid (concentration) None: 4.2

## C=C(c1ccc(/C=C2\SC(=O)NC2=O)cc1)c1cc2c(cc1C)C(C)(C)CCC2(C)C [TZ245]
[9]
  Ratio of differentiation-induced cells with coexistence of 3×10^-9 Am80: 88
[10]
  Ratio of differentiation-induced cells with coexistence of 3×10^-9 Am80: 89
[11]
  Ratio of differentiation-induced cells with coexistence of 3×10^-9 Am80: 86

## C=C(c1cccc(/C=C2\SC(=O)NC2=O)c1)c1cc2c(cc1C)C(C)(C)CCC2(C)C [TZ247]
Table 4
  ratios of differentiated cells, Coexisting retinoid (concentration) Am80 (-9): 10
  ratios of differentiated cells, Coexisting retinoid (concentration) Am80 (-9.5): 5.8
  ratios of differentiated cells, Coexisting retinoid (concentration) Am80 (-10): 6.4
  ratios of differentiated cells, Coexisting retinoid (concentration) None: 7

## CC1(C)CCC(C)(C)c2cc(Nc3ccc(/C=C4\SC(=O)NC4=O)cc3)ccc21 [TZ321]
[9]
  Ratio of differentiation-induced cells with coexistence of 3×10^-9 Am80: 88
[10]
  Ratio of differentiation-induced cells with coexistence of 3×10^-9 Am80: 83
[11]
  Ratio of differentiation-induced cells with coexistence of 3×10^-9 Am80: 55

## CN(c1ccc(/C=C2\SC(=O)NC2=O)cc1)c1ccc2c(c1)C(C)(C)CCC2(C)C [TZ325]
[9]
  Ratio of differentiation-induced cells with coexistence of 3×10^-9 Am80: 79
[10]
  Ratio of differentiation-induced cells with coexistence of 3×10^-9 Am80: 83
[11]
  Ratio of differentiation-induced cells with coexistence of 3×10^-9 Am80: 72
